Experimental data as given in patent US7741436B2, “Biologically active peptides and their use for repairing injured nerves” (priority 2001, dated 2010).

Tests used:
[1] = system: rat cerebellar granule neurons; test: Electrophysiology: voltage-clamped whole-cell patch recordings of currents induced by laminin-1-derived peptides and fusion proteins; type: cell-based; details: whole-cell patch clamp, neurons on laminin-1 substratum
Description: Sixteen-day pregnant Sprague-Dawley female rats were obtained from Taconic Farms, and maintained at the animal facility of National Institute of Alcohol Abuse and Alcoholism (NTH), fed with NTH-31 diet, containing 20,000 IU/kg vitamin A after autoclaving. The rats were allowed to give birth, and cerebellar tissues of 3-day-old female pups were aseptically isolated as described previously (Matsuzawa et al., 1996a). A suspension of single cells was obtained by trypsinizing the cerebella as described elsewhere (Liesi and Wright, 1996), after which 10^5 cells were plated on 22 mm glass coverslip pre-coated with laminin-1. The cells were incubated in an atmosphere of 95% air/5% CO2 at +37° C. in RPMI 1640 culture medium supplemented with penicillin and streptomycin and 200 μM L-glutamine. After 24 hrs, the cells were used for electrophysiology.
Recordings were done at room temperature using a List EPC-7 patch-clamp amplifier in voltage-clamped whole-cell patch configuration as described previously (Liesi and Wright, 1996). Pipettes were pulled from borosilicate glass and lightly fire polished. Experiments were performed at room temperature. Whole-cell currents were recorded on a Gould 2400S strip chart recorder. Cell membrane potential was clamped at −40 mV unless otherwise noted. All bath solutions were applied through pinch-valves that controlled the flow from multiple reservoirs to a single 200 μm ID barrel of fused silica. Standard bath solution was RPMI 1640, buffered with 10 mM HEPES (pH 7.4). The standard pipette solution contained (in mM): CsMeSO4 100, CsCl 15, BAPTA 5, HEPES 10 (pH KOH-adjusted to 7.2). Tests for reversal potentials were conducted in low K^+ bath solution containing (in mM): NaCl 150, KCl 5, CaCl2 1, HEPES 10 (pH adjusted to 7.2 with NaOH) and a high K^+ bath solution, containing (in mM): NaCl 115, KCl 40, CaCl2 1, HEPES 10 (pH adjusted to 7.2 with NaOH). All bath solutions contained 300 nM TTX. […] Nernst reversal potentials were calculated according to Hille (1992). […]

[2] = system: spinal cord injuries of adult male rats; test: Spinal cord injuries of adult male rats: complete lumbar spinal cord transection, mini pump administration; type: in vivo, Sprague-Dawley rats
Protocol: Complete transections of the lumbar spinal cord under deep pentobarbiturate anesthesia were made to 40 adult male Sprague-Dawley rats. Osmotic mini pumps were implanted subcutaneously to allow continuous flow of the KDI peptide (KDI-group) used at pre-tested concentrations (10-100 μg/ml) or a placebo (placebo-group). Morphine was given to both of the groups to alleviate the postoperative pain. The animals underwent weekly tests of their motor function during a period of three months. The motor score testing was carried out using a standard set of tests of motor evaluation (walking, tow-spread, placing and withdrawal). The mini pumps initially provided the drugs for 30 days, and when feasible, additional experiments were carried out with prolonged (up to 3 months) application. After 3 months, the animals in each group were euthanized and spinal cords were either deep frozen for immunocytochemistry, biochemistry and RNA-work, or fixed in 4% paraformaldehyde for in situ hybridization and histological analysis of recovery. […]
Preliminary motor scores were obtained from animals treated with KDI, and from control animals. […] The scores for each animal were calculated by adding up the walking scores obtained within a 12 week follow-up-time after the operation. […] The scores of six animals in placebo-group and six-animals, in the KDI-group were analysed and statistically compared. […]

Substance: KDI
- induction of currents in cerebellar granule neurons [1]: induced currents
- connective tissue scar at the dorsal pole of the spinal cord vs placebo ([2]; adult rats three months after injury, stereomicroscopic images): considerably smaller
- mean motor score (sum of walking scores) ([2]; rats with total spinal cord transection, 12 week follow-up, six animals, ±SEM, placebo 11±2.4, normal animal 120, P 0.0022, preliminary): 78±5.8
